7 molecules from patent publication US20200354426A1 (MEDIMMUNE LIMITED, priority 2016, published 2020) can be followed below.

What all share (assay): cAMP activity assay in assay medium (assay 1)
What all share (assay type): cell-based
Common to all, as to conditions: assay medium

The target of test [1] is T1, Human GIPr (Homo sapiens, UniProt P48546).
T1 construct: expressed in transfected cells
T1 sequence (P48546 22-466): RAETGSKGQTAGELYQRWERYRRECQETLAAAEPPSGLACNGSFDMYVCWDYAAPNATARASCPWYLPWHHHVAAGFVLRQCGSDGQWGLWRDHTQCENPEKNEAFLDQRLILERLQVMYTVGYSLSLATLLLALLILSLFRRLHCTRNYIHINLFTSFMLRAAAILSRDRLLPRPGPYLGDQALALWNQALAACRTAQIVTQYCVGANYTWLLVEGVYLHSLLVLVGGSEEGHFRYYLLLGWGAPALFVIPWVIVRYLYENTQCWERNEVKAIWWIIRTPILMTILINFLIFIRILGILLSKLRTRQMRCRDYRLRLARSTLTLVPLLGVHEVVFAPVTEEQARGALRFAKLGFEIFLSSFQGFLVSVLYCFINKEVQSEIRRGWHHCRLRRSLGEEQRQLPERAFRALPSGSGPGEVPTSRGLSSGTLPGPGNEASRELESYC
From the text:
(§1) Biological Activity of Peptides in Cell-Based cAMP Activity Assay (Assay 1):
(§2) All sample dilutions were made in duplicate.

Test [2] addresses T2, Human GlucR (Homo sapiens, UniProt P47871).
T2 construct: expressed in transfected cells
Description: as §1, §2

The target in test [3] is Human GLP1R (Homo sapiens, UniProt P43220). Also on record: expressed in transfected cells.
Description: as §1, §2

Setting [4] is: Table 3, C-terminal acid peptides, read-out: Human GIPr EC50.
[5] abbreviates: Table 3, C-terminal acid peptides, read-out: Human GlucR EC50.
[6] abbreviates: Table 3, C-terminal acid peptides, read-out: Human GLP1R EC50.

Where “and” joins values, the source holds several entries; their conditions need not be identical. Identical values can stand only once. Like-named read-outs stand apart in the source and are kept apart here. Numbered stars: 1 amine (or outer) side, 2 acyl side, 3 side chain; on linkers, the order of the positions; unused ones are H or OH. Side chains are listed from the residue outwards. Peptide text beside a SMILES is read from it. * marks the point of attachment. γGlu = O=C(O)[C@H](CCC(=O)[*:2])N[*:1]; Palmitoyl = CCCCCCCCCCCCCCCC(=O)*

Human GLP1R, sequence (P43220 24-463): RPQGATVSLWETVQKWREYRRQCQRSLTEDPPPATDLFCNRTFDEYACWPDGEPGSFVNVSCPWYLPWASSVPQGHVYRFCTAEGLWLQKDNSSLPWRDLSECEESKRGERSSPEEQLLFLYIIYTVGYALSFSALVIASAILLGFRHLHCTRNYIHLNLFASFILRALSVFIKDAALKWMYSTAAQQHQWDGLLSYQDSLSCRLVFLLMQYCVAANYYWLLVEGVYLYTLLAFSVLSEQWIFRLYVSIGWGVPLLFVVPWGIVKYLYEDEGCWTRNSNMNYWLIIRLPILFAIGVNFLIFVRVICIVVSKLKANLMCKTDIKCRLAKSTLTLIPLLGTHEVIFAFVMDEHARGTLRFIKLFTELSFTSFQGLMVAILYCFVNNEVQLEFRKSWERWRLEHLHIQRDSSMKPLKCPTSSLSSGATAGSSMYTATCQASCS
T2 sequence (P47871 26-477): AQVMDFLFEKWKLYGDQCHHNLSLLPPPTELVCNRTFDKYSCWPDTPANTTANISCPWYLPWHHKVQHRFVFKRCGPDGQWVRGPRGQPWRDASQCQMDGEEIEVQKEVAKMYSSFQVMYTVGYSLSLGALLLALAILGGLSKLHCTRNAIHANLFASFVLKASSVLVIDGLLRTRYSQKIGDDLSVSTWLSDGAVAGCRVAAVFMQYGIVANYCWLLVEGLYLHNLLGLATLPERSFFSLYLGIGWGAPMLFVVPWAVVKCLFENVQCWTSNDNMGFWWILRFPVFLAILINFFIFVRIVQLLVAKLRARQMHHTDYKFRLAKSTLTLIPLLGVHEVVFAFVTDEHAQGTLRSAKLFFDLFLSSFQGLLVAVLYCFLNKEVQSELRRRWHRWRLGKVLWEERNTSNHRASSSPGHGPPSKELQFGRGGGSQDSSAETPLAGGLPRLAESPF

What is called EC50 is the concentration at which the effect is half-maximal. As for `CCCCCCCCCCCCCCCC(=O)N[C@@H](CCC(=O)NCCCC[C@H](NC(=O)[C@H](CC(=O)O)NC(=O)[C@H](CO)NC(=O)[C@@H](NC(=O)[C@H](Cc1ccccc1)NC(=O)[C@@H](NC(=O)CNC(=O)[C@H](CCC(N)=O)NC(=O)[C@H](CO)NC(=O)[C@@H](N)Cc1c[nH]cn1)[C@@H](C)O)[C@@H](C)O)C(=O)N[C@@H](CO)C(=O)N[C@@H](CCCCN)C(=O)N[C@@H](Cc1ccc(O)cc1)C(=O)N[C@@H](CC(C)C)C(=O)N[C@@H](CCC(=O)O)C(=O)NCC(=O)N[C@@H](CCC(N)=O)C(=O)N[C@@H](C)C(=O)N[C@@H](C)C(=O)N[C@@H](CCCCN)C(=O)N[C@@H](CCC(=O)O)C(=O)N[C@@H](Cc1ccccc1)C(=O)N[C@H](C(=O)N[C@@H](C)C(=O)N[C@@H](Cc1c[nH]c2ccccc12)C(=O)N[C@@H](CC(C)C)C(=O)N[C@@H](CCC(=O)O)C(=O)N[C@@H](CCCCN)C(=O)NCC(=O)N[C@@H](CCCNC(=N)N)C(=O)O)[C@@H](C)CC)C(=O)O` [Peptide G934], the EC50 was determined as 3.6 nM in test [1] (setting [4]), 0.0063 nM in test [2] (setting [5]) and 0.018 nM in test [3] (setting [6]).
For `CCCCCCCCCCCCCCCC(=O)N[C@@H](CCC(=O)NCCCC[C@H](NC(=O)[C@H](CC(=O)O)NC(=O)[C@H](CO)NC(=O)[C@@H](NC(=O)[C@H](Cc1ccccc1)NC(=O)[C@@H](NC(=O)CNC(=O)[C@H](CCC(N)=O)NC(=O)[C@H](CO)NC(=O)[C@@H](N)Cc1c[nH]cn1)[C@@H](C)O)[C@@H](C)O)C(=O)N[C@@H](CO)C(=O)N[C@@H](CO)C(=O)N[C@@H](Cc1ccc(O)cc1)C(=O)N[C@@H](CC(C)C)C(=O)N[C@@H](CC(=O)O)C(=O)N[C@@H](CO)C(=O)N[C@@H](CCCNC(=N)N)C(=O)N[C@@H](CO)C(=O)N[C@@H](C)C(=O)N[C@@H](CCCNC(=N)N)C(=O)N[C@@H](CC(=O)O)C(=O)N[C@@H](Cc1ccccc1)C(=O)N[C@H](C(=O)N[C@@H](C)C(=O)N[C@@H](Cc1c[nH]c2ccccc12)C(=O)N[C@@H](CC(C)C)C(=O)N[C@@H](CCC(=O)O)C(=O)N[C@@H](C)C(=O)NCC(=O)NCC(=O)O)C(C)C)C(=O)O` [Peptide G973] the same measures were 47 nM, 0.0089 nM and 0.012 nM.
In the case of `CC(C)C[C@H](NC(=O)[C@H](Cc1ccc(O)cc1)NC(=O)[C@H](CCCCN)NC(=O)[C@H](CO)NC(=O)[C@H](Cc1ccc(O)cc1)NC(=O)[C@H](CC(=O)O)NC(=O)[C@H](CO)NC(=O)[C@@H](NC(=O)[C@H](Cc1ccccc1)NC(=O)[C@@H](NC(=O)CNC(=O)[C@H](CCC(N)=O)NC(=O)[C@H](CO)NC(=O)[C@@H](N)Cc1c[nH]cn1)[C@@H](C)O)[C@@H](C)O)C(=O)N[C@@H](CC(=O)O)C(=O)N[C@@H](CO)C(=O)N[C@@H](CCCNC(=N)N)C(=O)N[C@@H](CCCNC(=N)N)C(=O)N[C@@H](C)C(=O)N[C@@H](CCC(N)=O)C(=O)N[C@@H](CC(=O)O)C(=O)N[C@@H](Cc1ccccc1)C(=O)N[C@H](C(=O)N[C@@H](CCC(N)=O)C(=O)N[C@@H](Cc1c[nH]c2ccccc12)C(=O)N[C@@H](CC(C)C)C(=O)N[C@H](C(=O)N[C@@H](CCCNC(=N)N)C(=O)NCC(=O)NCC(=O)NCC(=O)NCC(=O)NCC(=O)NCC(N)=O)C(C)C)C(C)C` [g315], the EC50 in test [1] (Table 4, read-out: hGIPR EC50) was 19.7 nM; in test [2] (Table 4, read-out: hGlucR EC50) it was 0.00504 nM; in test [3] (Table 4, read-out: hGLP1R EC50), 0.0273 nM.
As to `CC(C)C[C@H](NC(=O)[C@H](Cc1ccc(O)cc1)NC(=O)[C@H](CCCCN)NC(=O)[C@H](CO)NC(=O)[C@H](Cc1ccc(O)cc1)NC(=O)[C@H](CC(=O)O)NC(=O)[C@H](CO)NC(=O)[C@@H](NC(=O)[C@H](Cc1ccccc1)NC(=O)[C@@H](NC(=O)CNC(=O)[C@H](CCC(N)=O)NC(=O)[C@H](CO)NC(=O)[C@@H](N)Cc1c[nH]cn1)[C@@H](C)O)[C@@H](C)O)C(=O)N[C@@H](CC(=O)O)C(=O)N[C@@H](CO)C(=O)N[C@@H](CCCNC(=N)N)C(=O)N[C@@H](CCCNC(=N)N)C(=O)N[C@@H](C)C(=O)N[C@@H](CCC(N)=O)C(=O)N[C@@H](CC(=O)O)C(=O)N[C@@H](Cc1ccccc1)C(=O)N[C@H](C(=O)N[C@@H](CCC(N)=O)C(=O)N[C@@H](Cc1c[nH]c2ccccc12)C(=O)N[C@@H](CC(C)C)C(=O)N[C@H](C(=O)N[C@@H](CCCNC(=N)N)C(=O)NCC(=O)NCC(=O)N[C@@H](CO)C(=O)N[C@@H](CO)C(=O)NCC(=O)NCC(=O)N[C@@H](CO)C(=O)N[C@@H](CO)C(N)=O)C(C)C)C(C)C` [g316], the EC50 in test [1] (Table 4, read-out: hGIPR EC50) came out at 3.65 nM; in test [2] (Table 4, read-out: hGlucR EC50), 0.0106 nM; in test [3] (Table 4, read-out: hGLP1R EC50) it was 0.0314 nM.
As for `CCCCCCCCCCCCCCCC(=O)NCCCC[C@H](NC(=O)[C@H](CO)NC(=O)[C@@H]1CCCN1C(=O)[C@@H]1CCCN1C(=O)[C@@H]1CCCN1C(=O)[C@H](C)NC(=O)CNC(=O)[C@H](CO)NC(=O)[C@H](CO)NC(=O)[C@@H]1CCCN1C(=O)CNC(=O)CNC(=O)[C@H](CCCNC(=N)N)NC(=O)[C@@H](NC(=O)[C@H](CC(C)C)NC(=O)[C@H](Cc1c[nH]c2ccccc12)NC(=O)[C@H](CCC(N)=O)NC(=O)[C@@H](NC(=O)[C@H](Cc1ccccc1)NC(=O)[C@H](CC(=O)O)NC(=O)[C@H](CCC(N)=O)NC(=O)[C@H](C)NC(=O)[C@H](CCCNC(=N)N)NC(=O)[C@H](CCCNC(=N)N)NC(=O)[C@H](CO)NC(=O)[C@H](CC(=O)O)NC(=O)[C@H](CC(C)C)NC(=O)[C@H](Cc1ccc(O)cc1)NC(=O)[C@H](CCCCN)NC(=O)[C@H](CO)NC(=O)[C@H](Cc1ccc(O)cc1)NC(=O)[C@H](CC(=O)O)NC(=O)[C@H](CO)NC(=O)[C@@H](NC(=O)[C@H](Cc1ccccc1)NC(=O)[C@@H](NC(=O)CNC(=O)[C@H](CCC(N)=O)NC(=O)[C@H](CO)NC(=O)[C@@H](N)Cc1c[nH]cn1)[C@@H](C)O)[C@@H](C)O)C(C)C)C(C)C)C(N)=O` [g320] (H-HSQGTFTSDYSKYLDSRRAQDFVQWLVRGGPSSGAPPPSK(Palmitoyl)-NH2; N-terminus assumed), the EC50 in test [1] (Table 4, read-out: hGIPR EC50) stood at 1.01 nM; in test [2] (Table 4, read-out: hGlucR EC50), 0.0032 nM; in test [3] (Table 4, read-out: hGLP1R EC50), 0.00938 nM.
Consider `CCCCCCCCCCCCCCCC(=O)N[C@@H](CCC(=O)NCCCC[C@H](NC(=O)[C@H](CO)NC(=O)[C@H](CC(=O)O)NC(=O)[C@H](CC(C)C)NC(=O)[C@H](Cc1ccc(O)cc1)NC(=O)[C@H](CCCCN)NC(=O)[C@H](CO)NC(=O)[C@H](Cc1ccc(O)cc1)NC(=O)[C@H](CC(=O)O)NC(=O)[C@H](CO)NC(=O)[C@@H](NC(=O)[C@H](Cc1ccccc1)NC(=O)[C@@H](NC(=O)CNC(=O)[C@H](CCC(N)=O)NC(=O)[C@H](CO)NC(=O)[C@@H](N)Cc1c[nH]cn1)[C@@H](C)O)[C@@H](C)O)C(=O)N[C@@H](CCCNC(=N)N)C(=O)N[C@@H](C)C(=O)N[C@@H](CCC(=O)O)C(=O)N[C@@H](CC(=O)O)C(=O)N[C@@H](Cc1ccccc1)C(=O)N[C@H](C(=O)N[C@@H](CCC(N)=O)C(=O)N[C@@H](Cc1c[nH]c2ccccc12)C(=O)N[C@@H](CC(C)C)C(=O)N[C@H](C(=O)N[C@@H](C)C(=O)NCC(=O)NCC(N)=O)C(C)C)C(C)C)C(=O)O` [g599], for which the EC50 in test [1] (Table 4, read-out: hGIPR EC50) was 113 nM and 112 nM; in test [2] (Table 4, read-out: hGlucR EC50) it was 0.0962 nM and 0.0698 nM.
With `CCCCCCCCCCCCCCCC(=O)N[C@@H](CCC(=O)NCCCC[C@H](NC(=O)[C@H](CC(=O)O)NC(=O)[C@H](CO)NC(=O)[C@@H](NC(=O)[C@H](Cc1ccccc1)NC(=O)[C@@H](NC(=O)CNC(=O)[C@H](CCC(N)=O)NC(=O)[C@H](CO)NC(=O)[C@@H](N)Cc1c[nH]cn1)[C@@H](C)O)[C@@H](C)O)C(=O)N[C@@H](CO)C(=O)N[C@@H](CCCNC(=N)N)C(=O)N[C@@H](Cc1ccc(O)cc1)C(=O)N[C@@H](CC(C)C)C(=O)N[C@@H](CC(=O)O)C(=O)N[C@@H](CO)C(=O)N[C@@H](CCC(=O)O)C(=O)N[C@@H](CCCNC(=N)N)C(=O)N[C@@H](C)C(=O)N[C@@H](CCCNC(=N)N)C(=O)N[C@@H](CC(=O)O)C(=O)N[C@@H](Cc1ccccc1)C(=O)N[C@H](C(=O)N[C@@H](C)C(=O)N[C@@H](Cc1c[nH]c2ccccc12)C(=O)N[C@@H](CC(C)C)C(=O)N[C@@H](CCC(=O)O)C(=O)N[C@@H](C)C(=O)NCC(=O)NCC(N)=O)C(C)C)C(=O)O` [g848] (H-HSQGTFTSDK([γGlu-Palmitoyl])SRYLDSERARDFVAWLEAGG-NH2; N-terminus assumed), the concentration giving a half-maximal response (EC50) in test [1] (Table 4, read-out: hGIPR EC50) stood at 2.77 nM; in test [3] (Table 4, read-out: hGLP1R EC50), 0.00942 nM.
